Laboratory results taken from patent US20240382629A1, “HETEROBIVALENT AND HOMOBIVALENT AGENTS TARGETING FIBROBLAST ACTIVATION PROTEIN ALPHA AND/OR PROSTATE-SPECIFIC MEMBRANE ANTIGEN” (The Johns Hopkins University, priority 2021, published 2024).
Where two headings read alike, the source gives them in different places. One block for each compound: values may come before it.

Columns and labels:
[1] = biological target: FAP (Homo sapiens (Human), UniProt Q12884); assay: FAP inhibition assay (recombinant enzyme, Z-Gly-Pro-AMC substrate); format: biochemical; conditions: for Ki: read-out: FAP Ki
Chain of FAP (Q12884 whole entry): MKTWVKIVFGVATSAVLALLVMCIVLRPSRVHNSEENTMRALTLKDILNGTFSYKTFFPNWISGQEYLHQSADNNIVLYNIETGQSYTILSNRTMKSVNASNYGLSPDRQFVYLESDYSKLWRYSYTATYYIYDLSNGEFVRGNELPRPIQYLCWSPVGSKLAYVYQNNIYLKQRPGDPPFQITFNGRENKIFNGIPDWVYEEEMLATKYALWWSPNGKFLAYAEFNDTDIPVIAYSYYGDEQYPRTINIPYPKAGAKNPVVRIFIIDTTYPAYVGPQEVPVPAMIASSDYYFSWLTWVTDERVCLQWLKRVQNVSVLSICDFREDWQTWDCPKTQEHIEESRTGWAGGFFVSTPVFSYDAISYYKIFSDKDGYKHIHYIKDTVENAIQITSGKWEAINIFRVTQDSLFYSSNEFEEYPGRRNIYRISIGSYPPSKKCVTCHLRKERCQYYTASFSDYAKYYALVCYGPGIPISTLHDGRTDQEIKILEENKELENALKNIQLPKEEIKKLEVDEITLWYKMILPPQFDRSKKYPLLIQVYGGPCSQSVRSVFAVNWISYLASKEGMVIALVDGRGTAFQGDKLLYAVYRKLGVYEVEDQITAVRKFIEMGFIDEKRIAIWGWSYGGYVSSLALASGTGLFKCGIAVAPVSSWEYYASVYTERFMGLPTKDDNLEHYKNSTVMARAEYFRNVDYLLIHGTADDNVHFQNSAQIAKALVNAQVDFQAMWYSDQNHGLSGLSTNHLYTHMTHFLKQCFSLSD
Protocol: (§1) PSMA binding affinities of the compounds were determined using a competitive inhibition assay as previously reported. […] FAP, prolyl endopeptidase (PREP), and […] (DPPIV) inhibition assays: Recombinant enzymes (FAP, PREP, DPPIV) were purchased from R&D Systems (Minneapolis, MN). […] Z-Gly-Pro-AMC was used as a substrate for FAP and PREP. H-Gly-Pro-AMC was used as a substrate for DPPIV. The recombinant enzyme (0.4 μg/mL) was incubated with varying amounts of the test articles in the presence of the designated substrate (80 μM) for 10 min at room temperature. Fluorescence intensity was measured with 380 nm excitation and 460 nm emission using the Cytation 5 Cell Imaging Multi-Mode Reader (BioTek, Winooski, VT). IC50 and Ki values were obtained using a sigmoidal dose-response function.

[2] = biological target: PREP (Homo sapiens (Human), UniProt P48147); assay: PREP inhibition assay (recombinant enzyme, Z-Gly-Pro-AMC substrate); format: biochemical
Chain of PREP (P48147 whole entry): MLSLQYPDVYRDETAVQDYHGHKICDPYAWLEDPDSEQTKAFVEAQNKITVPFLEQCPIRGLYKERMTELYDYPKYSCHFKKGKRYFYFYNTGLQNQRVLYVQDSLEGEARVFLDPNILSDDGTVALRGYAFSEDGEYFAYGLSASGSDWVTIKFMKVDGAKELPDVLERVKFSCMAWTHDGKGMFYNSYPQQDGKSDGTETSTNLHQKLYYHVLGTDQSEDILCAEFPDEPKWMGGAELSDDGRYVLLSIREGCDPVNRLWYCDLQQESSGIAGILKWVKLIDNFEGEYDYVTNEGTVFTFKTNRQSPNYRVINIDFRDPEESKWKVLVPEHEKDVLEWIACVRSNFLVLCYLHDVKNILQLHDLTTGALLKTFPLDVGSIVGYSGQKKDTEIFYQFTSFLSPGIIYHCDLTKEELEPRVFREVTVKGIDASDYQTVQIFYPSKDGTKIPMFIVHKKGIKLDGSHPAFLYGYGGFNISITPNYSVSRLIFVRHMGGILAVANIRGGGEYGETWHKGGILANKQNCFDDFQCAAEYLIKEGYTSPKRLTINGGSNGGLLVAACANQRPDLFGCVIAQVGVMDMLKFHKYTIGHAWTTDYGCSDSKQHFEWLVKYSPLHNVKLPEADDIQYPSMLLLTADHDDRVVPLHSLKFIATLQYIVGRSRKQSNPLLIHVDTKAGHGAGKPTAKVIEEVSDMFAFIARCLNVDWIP
Protocol: as §1

[3] = biological target: DPPIV (Homo sapiens (Human), UniProt P27487); assay: DPPIV inhibition assay (recombinant enzyme, H-Gly-Pro-AMC substrate); format: biochemical; conditions: for IC50: read-out: DPPIV IC50
Chain of DPPIV (P27487 whole entry): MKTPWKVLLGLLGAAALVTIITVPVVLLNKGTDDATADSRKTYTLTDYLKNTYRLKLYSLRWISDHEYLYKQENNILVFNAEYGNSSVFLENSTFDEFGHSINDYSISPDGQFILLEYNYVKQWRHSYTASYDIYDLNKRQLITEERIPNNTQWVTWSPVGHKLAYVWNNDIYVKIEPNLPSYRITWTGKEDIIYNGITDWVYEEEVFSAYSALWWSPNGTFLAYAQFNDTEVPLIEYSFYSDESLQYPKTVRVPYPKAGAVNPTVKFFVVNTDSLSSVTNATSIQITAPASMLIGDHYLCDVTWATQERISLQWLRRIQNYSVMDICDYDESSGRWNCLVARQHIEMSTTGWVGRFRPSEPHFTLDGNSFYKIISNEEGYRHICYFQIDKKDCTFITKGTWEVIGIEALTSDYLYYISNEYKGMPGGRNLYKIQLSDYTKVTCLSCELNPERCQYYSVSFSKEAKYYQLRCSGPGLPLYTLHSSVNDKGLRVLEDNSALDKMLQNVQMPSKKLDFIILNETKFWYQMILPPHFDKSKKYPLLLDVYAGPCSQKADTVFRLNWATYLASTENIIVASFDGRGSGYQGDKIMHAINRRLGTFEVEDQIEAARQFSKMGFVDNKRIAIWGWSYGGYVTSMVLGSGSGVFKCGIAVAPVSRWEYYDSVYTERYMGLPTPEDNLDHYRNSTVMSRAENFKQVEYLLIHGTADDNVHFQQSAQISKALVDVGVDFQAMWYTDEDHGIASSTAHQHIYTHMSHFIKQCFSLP
Protocol: as §1

[4] = biological target: PSMA (Homo sapiens (Human), UniProt Q04609); assay: PSMA competitive inhibition assay (NAAG substrate, LNCaP cell lysate); format: biochemical; conditions: for Ki: read-out: PSMA Ki
Chain of PSMA (Q04609 whole entry): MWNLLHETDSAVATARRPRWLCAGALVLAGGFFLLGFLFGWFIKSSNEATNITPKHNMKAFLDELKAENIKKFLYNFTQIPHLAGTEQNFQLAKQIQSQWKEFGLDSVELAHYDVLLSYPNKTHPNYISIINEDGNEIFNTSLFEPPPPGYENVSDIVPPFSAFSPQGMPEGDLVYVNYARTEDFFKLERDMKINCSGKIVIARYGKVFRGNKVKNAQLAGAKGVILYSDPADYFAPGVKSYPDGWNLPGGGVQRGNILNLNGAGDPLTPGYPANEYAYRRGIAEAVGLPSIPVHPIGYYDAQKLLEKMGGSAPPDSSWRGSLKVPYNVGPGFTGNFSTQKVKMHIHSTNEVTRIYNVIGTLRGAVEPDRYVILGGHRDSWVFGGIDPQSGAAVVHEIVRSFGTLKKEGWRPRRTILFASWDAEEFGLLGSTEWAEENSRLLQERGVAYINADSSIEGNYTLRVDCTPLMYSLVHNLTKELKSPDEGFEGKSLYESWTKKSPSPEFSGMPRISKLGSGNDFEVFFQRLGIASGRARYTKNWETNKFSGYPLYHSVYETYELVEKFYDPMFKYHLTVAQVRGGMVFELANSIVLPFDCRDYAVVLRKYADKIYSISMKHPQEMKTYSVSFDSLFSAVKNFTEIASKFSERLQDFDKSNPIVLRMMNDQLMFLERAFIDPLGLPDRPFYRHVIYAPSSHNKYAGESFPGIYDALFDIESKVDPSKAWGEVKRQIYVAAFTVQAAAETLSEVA
Protocol: as §1

[5] = system: MDA-MB-231; assay: Biodistribution in MB-MDA-231 NSG mice; format: in vivo, mouse; parameters: Biodistribution: Spleen / Biodistribution: Fat / Biodistribution: Kidney / Biodistribution: Muscle / Biodistribution: Small Intestine / Biodistribution: Salivary Gland / Biodistribution: Lacrimal gland / Biodistribution: Bladder / Biodistribution: Bone / Biodistribution: MDA-MB-231 / Biodistribution: Blood / Biodistribution: Heart / Biodistribution: Lung / Biodistribution: Liver / Biodistribution: Stomach: unit not given here

SMILES: N#C[C@@H]1CCCN1C(=O)CNC(=O)c1ccnc2ccc(OCCCNC(=O)CCc3cn(CCOCCOCCOCCC(=O)N[C@@H](CCCCNC(=O)CN4CCN(CC(=O)O)CCN(CC(=O)O)CC4)C(=O)NCCCCC(=O)N(CCCC[C@H](NC(=O)N[C@@H](CCC(=O)O)C(=O)O)C(=O)O)Cc4ccc(Br)cc4)nn3)cc12 [SB-FAP-02]
- IC50 ([1]; Table 4): 1.53 nM
- Ki ([1]; Table 4): 0.31 nM
- Ki [1]: 0.31 nM
- Ki [2]: 116000 nM
- IC50 ([2]; Table 4): 580 nM
- Ki [3]: 1760 nM
- IC50 ([3]; Table 4): 8810 nM
- IC50 ([4]; Table 4): 90 nM
- Ki ([4]; Table 4): 18.1 nM
- Ki [4]: 18.1 nM
- PSMA binding affinity, fold lower than FP-L2 ([4]; relative to FP-L2): 2 fold
- Biodistribution: Blood ([5]; At 1 h nude mice): 8.47 ± 0.16
- Biodistribution: Bone ([5]; At 1 h nude mice): 3.34 ± 0.32
- Biodistribution: Fat ([5]; At 1 h nude mice): 0.61 ± 0.31
- Biodistribution: Heart ([5]; At 1 h nude mice): 3.46 ± 0.07
- Biodistribution: Kidney ([5]; At 1 h nude mice): 12.14 ± 1.39
- Biodistribution: Lacrimal gland ([5]; At 1 h nude mice): 6.61 ± 1.23
- Biodistribution: Liver ([5]; At 1 h nude mice): 6.74 ± 0.16
- Biodistribution: Lung ([5]; At 1 h nude mice): 5.16 ± 0.04
- Biodistribution: MDA-MB-231 ([5]; At 1 h nude mice): 3.60 ± 0.32
- Biodistribution: Muscle ([5]; At 1 h nude mice): 1.59 ± 0.07
- Biodistribution: Pancreas ([5]; At 1 h nude mice): 4.95 ± 0.24
- Biodistribution: Salivary Gland ([5]; At 1 h nude mice): 7.75 ± 0.99
- Biodistribution: Small Intestine ([5]; At 1 h nude mice): 6.69 ± 0.82
- Biodistribution: Spleen ([5]; At 1 h nude mice): 2.38 ± 0.04
- Biodistribution: Stomach ([5]; At 1 h nude mice): 2.72 ± 0.30
- Biodistribution: Bladder ([5]; At 2 h NSG mice): 1.82 ± 0.26

SMILES: N#C[C@@H]1CCCN1C(=O)CNC(=O)c1ccnc2ccc(OCCCNC(=O)CCc3cn(CCOCCOCCOCCC(=O)N[C@@H](CCCCNC(=O)CCC(C(=O)O)N4CCN(CC(=O)O)CCN(CC(=O)O)CCN(CC(=O)O)CC4)C(=O)NCCCCC(=O)N(CCCC[C@H](NC(=O)N[C@@H](CCC(=O)O)C(=O)O)C(=O)O)Cc4ccc(Br)cc4)nn3)cc12 (stereo partly shown) [SB-FAP-03]
- IC50 ([1]; Table 4): 3.42 nM
- Ki ([1]; Table 4): 0.68 nM
- IC50 ([2]; Table 4): 1370 nM
- IC50 ([3]; Table 4): 18400 nM
- IC50 ([4]; Table 4): 14.5 nM
- Ki ([4]; Table 4): 2.89 nM

- IC50 ([1]; Table 4): 1.84 nM
- Ki ([1]; Table 4): 0.37 nM
- IC50 ([2]; Table 4): 370 nM
- IC50 ([3]; Table 4): 14100 nM
- IC50 ([4]; Table 4): 4.71 nM
- Ki ([4]; Table 4): 0.94 nM
SMILES: N#C[C@@H]1CCCN1C(=O)CNC(=O)c1ccnc2ccc(OCCCNC(=O)CCc3cn(CCCC[C@H](NC(=O)CN4CCN(CC(=O)O)CCN(CC(=O)O)CCN(CC(=O)O)CC4)C(=O)NCCCCCC(=O)N(CCCC[C@H](NC(=O)N[C@@H](CCC(=O)O)C(=O)O)C(=O)O)Cc4ccc(Br)cc4)nn3)cc12 [SB-FAP-06]

- IC50 ([1]; Table 4): 0.65 nM
- Ki [1]: 0.13 nM
- Ki [2]: 210 nM
- IC50 ([2]; Table 4): 1070 nM
- Ki [3]: 3040 nM
- IC50 ([3]; Table 4): 11700 nM
- IC50 ([4]; Table 4): 39.6 nM
- Ki [4]: 7.92 nM
SMILES: N#C[C@@H]1CCCN1C(=O)CNC(=O)c1ccnc2ccc(OCCCNC(=O)CCc3cn(CCCC[C@H](NC(=O)CN4CCN(CC(=O)O)CCN(CC(=O)O)CC4)C(=O)NCCCCCC(=O)N(CCCC[C@H](NC(=O)N[C@@H](CCC(=O)O)C(=O)O)C(=O)O)Cc4ccc(Br)cc4)nn3)cc12 [SB-FAP-07]

SMILES: CC1(C)C(/C=C/C2=C(Oc3ccc(S(=O)(=O)O)cc3)C(=C/C=C3/N(CCCCS(=O)(=O)O)c4ccc(S(=O)(=O)O)cc4C3(C)C)/CCC2)=[N+](CCCCCC(=O)N[C@@H](CCCCn2cc(CCC(=O)NCCCOc3ccc4nccc(C(=O)NCC(=O)N5CCC[C@H]5C#N)c4c3)nn2)C(=O)NCCNC(=O)CCC(C(=O)O)N2CCN(CC(=O)O)CCN(CC(=O)O)CCN(CC(=O)O)CC2)c2ccc(S(=O)(=O)[O-])cc21 (stereo partly shown) [SB-FAP-10]
- IC50 ([1]; Table 4): 3.43 nM
- Ki ([1]; Table 4): 0.69 nM
- IC50 ([2]; Table 4): 2530 nM
- IC50 ([3]; Table 4): 11900 nM

SMILES: N#C[C@@H]1CCCN1C(=O)CNC(=O)c1ccnc2ccc(OCCCNC(=O)CCc3cn(CCCC[C@H](NC(=O)c4ccc(F)nc4)C(=O)NCCNC(=O)CCC(C(=O)O)N4CCN(CC(=O)O)CCN(CC(=O)O)CCN(CC(=O)O)CC4)nn3)cc12 (stereo partly drawn) [SB-FAP-11, 2,2′,2″-(10-(1-Carboxy-4-((2-((S)-6-(4-(3-((3-((4-((2-((S)-2-cyanopyrrolidin-1-yl)-2-oxoethyl)carbamoyl)quinolin-6-yl)oxy)propyl)amino)-3-oxopropyl)-1H-1,2,3-triazol-1-yl)-2-(6-fluoronicotinamido)hexanamido)ethyl)amino)-4-oxobutyl)-1,4,7,10-tetraazacyclododecane-1,4,7-triyl)triacetic acid]
- IC50 ([1]; Table 3): 0.35 nM
- Ki ([1]; Table 3): 0.07 nM
- IC50 ([2]; Table 3): 510 nM
- IC50 ([3]; Table 3): 9480 nM

- IC50 ([1]; Table 4): 2.23 nM
- Ki ([1]; Table 4): 0.45 nM
- IC50 ([2]; Table 4): 11200 nM
- IC50 ([3]; Table 4): 9910 nM
- IC50 ([4]; Table 4): 4710 nM
- Ki ([4]; Table 4): 940 nM
SMILES: N#CC1CCCN1C(=O)CNC(=O)c1ccnc2ccc(OCCCNC(=O)CCc3cn(CC[C@H](NC(=O)CN4CCN(CC(=O)O)CCN(CC(=O)O)CC4)C(=O)NCCCCCC(=O)NCCCC[C@H](NC(=O)N[C@@H](CC(=O)O)C(=O)O)C(=O)O)nn3)cc12 (stereo partly shown) [SRI-07-42]
